Results from patent US20210137883A1, “ANTI-NEOPLASTIC COMPOUNDS AND METHODS TARGETING QSOX1” (ARIZONA BOARD OF REGENTS ON BEHALF OF ARIZONA STATE …, priority 2015, published 2021).
“Also recorded” adds a separate entry of the source.

Legend:
[1] = target: T1, recombinant QSOX1 (Homo sapiens, UniProt O00391); experiment: Fluorogenic HTS assay for QSOX1 inhibitors (H2O2 detection, RNAse A substrate); format: biochemical; details: library screen with recombinant QSOX1
T1 construct: made in house
T1 sequence (O00391 30-747): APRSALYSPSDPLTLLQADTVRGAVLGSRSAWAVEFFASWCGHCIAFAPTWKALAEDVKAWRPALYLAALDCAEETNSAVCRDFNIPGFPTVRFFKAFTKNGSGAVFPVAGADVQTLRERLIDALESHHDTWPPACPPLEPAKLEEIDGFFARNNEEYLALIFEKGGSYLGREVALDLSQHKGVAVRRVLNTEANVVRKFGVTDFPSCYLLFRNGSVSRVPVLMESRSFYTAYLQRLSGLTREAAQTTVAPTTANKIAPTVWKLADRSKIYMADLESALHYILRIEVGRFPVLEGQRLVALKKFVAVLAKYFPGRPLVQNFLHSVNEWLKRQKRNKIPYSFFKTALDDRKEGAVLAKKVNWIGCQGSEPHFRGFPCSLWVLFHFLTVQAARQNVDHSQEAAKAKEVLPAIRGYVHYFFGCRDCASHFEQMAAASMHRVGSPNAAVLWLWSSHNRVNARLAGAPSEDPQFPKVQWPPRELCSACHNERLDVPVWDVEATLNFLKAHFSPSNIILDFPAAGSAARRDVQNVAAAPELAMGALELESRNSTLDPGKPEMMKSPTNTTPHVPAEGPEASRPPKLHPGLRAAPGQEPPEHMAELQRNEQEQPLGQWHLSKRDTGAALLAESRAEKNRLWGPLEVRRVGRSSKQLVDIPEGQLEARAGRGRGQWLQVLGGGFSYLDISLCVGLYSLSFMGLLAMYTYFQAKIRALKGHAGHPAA
Description: FIG. 7. An in vitro assay to screen for QSOX1 inhibitors; Fluorogenic assay (also can be HTS). Enzymatically active recombinant QSOX1 is incubated with individual compounds in individual wells of a 384 well plate. […] Therefore, no fluorescence is observed.
In screening for inhibitors, recombinant QSOX1 was produced and tested in fluorogenic assays to make sure it was active. The recombinant enzyme then was sent to the Sanford Burnham Institute for use in the same/similar assay to screen libraries for chemical compounds that inhibit the enzymatic activity of QSOX1.
A peptide was identified in plasma from pancreatic cancer patients that mapped back to the QSOX1 parent protein (FIG. 1, prior art). […] A high throughput screening assay (HTS) was employed to screen a library of chemical compounds (50,000 compounds). The assay detects H2O2 produced by QSOX1 when it is enzymatically active (FIG. 7). Inhibition of the enzymatic activity of QSOX1 (with a chemical compound) suppresses H2O2 production, decreasing fluorescent or bioluminescent signal in the assay.

[2] = system: 786-O cells; experiment: Boyden chamber invasion through Matrigel, 786-O kidney cancer cells; format: cell-based; details: dose-dependent; FIG. 11
Description: FIG. 11. Effect of Compound SBI-0143183 on Kidney cancer invasion through Matrigel (786-0).

[3] = system: 786-O; experiment: Detection of laminin-α4 deposition with anti-LAMA4 antibody in kidney cancer cells; format: cell-based; details: 15 uM SBI-183; 786-O kidney cancer cells; FIG. 12
Description: FIG. 12. 786-O Detection of laminin-α4 using anti-LAMA4 antibody in kidney cancer cells after incubation with 15uM SBI-183. […] Secondary alone indicates the goat anti-mouse antibody that was used to detect binding of anti-LAMA4.

[4] = system: MIAPaCa2 pancreatic tumor cells; experiment: Boyden chamber invasion through Matrigel, MIAPaCa2; format: cell-based; details: FIG. 13
[5] = system: MCF-10A breast cancer cell lines containing mutant p53; experiment: Boyden chamber invasion through Matrigel, MCF-10A p53 breast cell lines; format: cell-based; details: FIG. 13
Description: FIG. 13. […] P530E is MCF-10A non-malignant breast cell line containing wild type (non-mutated) p53. R248W, R273C and Y220C are three different p53 mutants expressed in MCF-10A breast cells.

[6] = system: UOK117 renal cell carcinoma xenografts; experiment: UOK117 renal cell carcinoma xenografts in nude mice; format: in vivo; details: oral lavage 20 mg/kg/day from day 7, compared to vehicle-treated and untreated mice, FIG. 14
Description: FIG. 14. […] Mice were inoculated with 1 million tumor cells in the hind flank. Treatment was started on day 7 by oral lavage at 20 mg/kg/day.

[7] = system: myeloma cell lines; experiment: MTT assay on myeloma cell lines; format: cell-based; details: 2-fold serial dilutions, at higher doses, FIG. 15
Description: FIG. 15. MTT assay results from exposure of myeloma cell lines to SBI-183. Assay conditions: 25,000 cells per well were plated in a 96-well flat-bottom plate. 2-fold serial dilutions of SBI-183 were added to each well. % cell viability was calculated using the following formula: cmpd+cells/vehicle+cells*100%.

inhibition of the enzymatic activity of QSOX1 [1]: inhibitor
SMILES: COc1cccc(C(=O)Nc2ccc(N3CCCC3)cc2)c1 [SBI-183, 3-methoxy-N-[4-(1-pyrrolidinyl)phenyl]benzamide]
invasion of 786-O cells through Matrigel [2]: suppressed invasion
deposition of laminin-α4 into the extracellular matrix [3]: not deposited; also recorded: inhibits deposition
invasion through Matrigel of MIAPaCa2 pancreatic tumor cells [4]: suppresses invasion
invasion through Matrigel of MCF-10A breast cell lines (p53 overexpress and mutant p53 R248W, R273C, Y220C) [5]: suppresses invasion
growth of UOK117 renal cell carcinoma xenografts [6]: suppresses the growth
cell viability (MTT) [7]: decreased viability
